Experiments:
[1] = test system: cell culture-derived HCV (HCVcc); format: cell-based, Hepatitis C virus
HCoV-OC43 (VR-1558) = test: Anti coronavirus activity: viral CPE inhibition in Vero 76 cells (microscopy, neutral red); format: cell-based; conditions: hCoV-OC43 (beta)
AAK1 = AAK1 (Homo sapiens, UniProt Q2M2I8); test: Kinase inhibition assay (HotSpot); format: biochemical; conditions: 10 μM ATP; read-out: Compound IC50, AAK1
Description: (§1) In vitro profiling of lipid and tyrosine kinases was accomplished using the “HotSpot” assay platform.

ABL2 = ABL2 (Homo sapiens, UniProt P42684); test: Kinase inhibition assay (HotSpot); format: biochemical; conditions: 10 μM ATP; read-out: Compound IC50, ABL2
Description: as §1

BIKE = BIKE (Homo sapiens, UniProt Q9NSY1); test: Kinase inhibition assay (HotSpot); format: biochemical; conditions: 10 μM ATP; read-out: Compound IC50, BIKE
Description: as §1

CSNK2A1 = CSNK2A1 (Homo sapiens, UniProt P68400); test: Kinase inhibition assay (HotSpot); format: biochemical; conditions: 10 μM ATP; read-out: Compound IC50, CSNK2A1
Description: as §1

CSNK2A2 = CSNK2A2 (Homo sapiens, UniProt P19784); test: Kinase inhibition assay (HotSpot); format: biochemical; conditions: 10 μM ATP; read-out: Compound IC50, CSNK2A2
Description: as §1

GAK = target: T1, GAK (Homo sapiens, UniProt O14976); test: Kinase inhibition assay (HotSpot); format: biochemical; conditions: 10 μM ATP; read-out: Compound IC50, GAK
T1 sequence (O14976 1-1311): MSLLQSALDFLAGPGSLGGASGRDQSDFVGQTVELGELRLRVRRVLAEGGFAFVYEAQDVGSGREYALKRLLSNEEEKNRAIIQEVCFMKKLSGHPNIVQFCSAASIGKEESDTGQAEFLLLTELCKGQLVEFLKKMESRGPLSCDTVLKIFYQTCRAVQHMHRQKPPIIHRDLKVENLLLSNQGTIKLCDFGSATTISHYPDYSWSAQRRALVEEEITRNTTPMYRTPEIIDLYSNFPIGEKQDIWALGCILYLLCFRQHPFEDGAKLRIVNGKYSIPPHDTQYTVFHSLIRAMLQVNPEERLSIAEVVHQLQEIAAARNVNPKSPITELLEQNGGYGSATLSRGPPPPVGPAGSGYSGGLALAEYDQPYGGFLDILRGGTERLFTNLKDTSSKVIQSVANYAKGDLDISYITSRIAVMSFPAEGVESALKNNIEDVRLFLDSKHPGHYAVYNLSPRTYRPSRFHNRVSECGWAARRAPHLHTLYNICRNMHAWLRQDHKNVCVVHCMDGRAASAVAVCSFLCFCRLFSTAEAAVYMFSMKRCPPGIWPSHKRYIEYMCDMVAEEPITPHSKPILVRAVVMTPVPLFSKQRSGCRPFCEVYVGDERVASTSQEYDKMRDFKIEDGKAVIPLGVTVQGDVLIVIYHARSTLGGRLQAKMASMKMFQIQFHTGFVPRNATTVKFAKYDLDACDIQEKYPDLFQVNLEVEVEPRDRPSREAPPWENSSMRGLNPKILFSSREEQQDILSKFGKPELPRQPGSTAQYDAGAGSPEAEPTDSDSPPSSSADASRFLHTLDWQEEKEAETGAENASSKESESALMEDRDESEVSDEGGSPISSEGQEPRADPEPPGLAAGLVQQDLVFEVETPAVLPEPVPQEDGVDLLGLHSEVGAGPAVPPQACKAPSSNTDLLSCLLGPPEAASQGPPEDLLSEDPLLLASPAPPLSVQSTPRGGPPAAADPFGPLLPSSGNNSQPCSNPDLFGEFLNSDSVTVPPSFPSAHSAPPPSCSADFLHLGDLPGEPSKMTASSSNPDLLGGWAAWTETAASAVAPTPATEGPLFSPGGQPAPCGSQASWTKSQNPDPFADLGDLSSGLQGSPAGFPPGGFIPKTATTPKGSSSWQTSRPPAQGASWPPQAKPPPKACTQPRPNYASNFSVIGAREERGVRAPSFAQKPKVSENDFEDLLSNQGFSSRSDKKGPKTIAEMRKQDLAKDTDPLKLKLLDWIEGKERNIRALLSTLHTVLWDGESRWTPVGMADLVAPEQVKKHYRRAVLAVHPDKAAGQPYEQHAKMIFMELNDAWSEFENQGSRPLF
Description: as §1

MNK2 = MNK2 (Homo sapiens, UniProt Q9HBH9); test: Kinase inhibition assay (HotSpot); format: biochemical; conditions: 10 μM ATP; read-out: Compound IC50, MNK2
Description: as §1

PI3Kb = PI3Kb (Homo sapiens, UniProt P42338); test: Kinase inhibition assay (HotSpot); format: biochemical; conditions: 10 μM ATP; read-out: Compound IC50, PI3Kb
Description: as §1

Sequence of CSNK2A1 (P68400 whole entry): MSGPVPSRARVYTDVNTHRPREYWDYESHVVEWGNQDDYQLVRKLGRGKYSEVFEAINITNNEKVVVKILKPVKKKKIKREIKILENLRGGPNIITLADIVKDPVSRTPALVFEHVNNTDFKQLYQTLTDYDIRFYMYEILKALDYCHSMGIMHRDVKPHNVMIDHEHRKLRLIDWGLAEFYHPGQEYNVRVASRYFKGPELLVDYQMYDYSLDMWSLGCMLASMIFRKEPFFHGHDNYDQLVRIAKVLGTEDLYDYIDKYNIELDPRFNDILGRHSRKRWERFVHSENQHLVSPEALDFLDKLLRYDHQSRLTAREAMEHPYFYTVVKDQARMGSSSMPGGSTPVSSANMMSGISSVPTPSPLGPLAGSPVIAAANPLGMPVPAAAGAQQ
Sequence of BIKE (Q9NSY1 whole entry): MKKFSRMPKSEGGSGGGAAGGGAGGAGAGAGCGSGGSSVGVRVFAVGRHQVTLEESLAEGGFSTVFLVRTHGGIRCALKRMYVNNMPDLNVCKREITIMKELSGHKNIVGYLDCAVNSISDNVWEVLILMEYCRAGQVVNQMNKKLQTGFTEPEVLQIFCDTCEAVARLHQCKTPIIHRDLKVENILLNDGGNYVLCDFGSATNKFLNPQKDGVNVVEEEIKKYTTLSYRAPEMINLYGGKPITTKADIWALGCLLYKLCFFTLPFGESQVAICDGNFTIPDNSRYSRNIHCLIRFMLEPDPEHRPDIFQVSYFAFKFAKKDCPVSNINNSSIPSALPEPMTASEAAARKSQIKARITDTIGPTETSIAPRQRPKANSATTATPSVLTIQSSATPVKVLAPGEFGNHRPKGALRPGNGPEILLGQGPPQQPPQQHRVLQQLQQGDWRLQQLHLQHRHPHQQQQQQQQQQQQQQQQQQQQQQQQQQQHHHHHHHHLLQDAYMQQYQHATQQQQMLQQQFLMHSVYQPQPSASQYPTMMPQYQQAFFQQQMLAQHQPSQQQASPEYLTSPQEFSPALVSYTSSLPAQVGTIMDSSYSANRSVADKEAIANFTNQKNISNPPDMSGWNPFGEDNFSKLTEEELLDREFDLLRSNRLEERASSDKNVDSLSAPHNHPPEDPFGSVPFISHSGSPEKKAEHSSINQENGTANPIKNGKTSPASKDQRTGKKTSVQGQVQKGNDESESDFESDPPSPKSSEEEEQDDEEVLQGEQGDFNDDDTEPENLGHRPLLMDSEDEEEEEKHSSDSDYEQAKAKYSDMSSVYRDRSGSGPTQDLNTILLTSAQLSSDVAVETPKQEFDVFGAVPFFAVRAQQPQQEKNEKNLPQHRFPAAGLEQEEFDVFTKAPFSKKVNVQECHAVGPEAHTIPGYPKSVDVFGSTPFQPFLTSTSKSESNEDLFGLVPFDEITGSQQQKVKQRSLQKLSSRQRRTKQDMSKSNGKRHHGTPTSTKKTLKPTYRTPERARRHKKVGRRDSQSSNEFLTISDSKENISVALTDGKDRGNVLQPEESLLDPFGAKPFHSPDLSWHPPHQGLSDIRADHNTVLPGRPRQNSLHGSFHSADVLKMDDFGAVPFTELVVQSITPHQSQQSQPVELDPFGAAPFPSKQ
Sequence of PI3Kb (P42338 whole entry): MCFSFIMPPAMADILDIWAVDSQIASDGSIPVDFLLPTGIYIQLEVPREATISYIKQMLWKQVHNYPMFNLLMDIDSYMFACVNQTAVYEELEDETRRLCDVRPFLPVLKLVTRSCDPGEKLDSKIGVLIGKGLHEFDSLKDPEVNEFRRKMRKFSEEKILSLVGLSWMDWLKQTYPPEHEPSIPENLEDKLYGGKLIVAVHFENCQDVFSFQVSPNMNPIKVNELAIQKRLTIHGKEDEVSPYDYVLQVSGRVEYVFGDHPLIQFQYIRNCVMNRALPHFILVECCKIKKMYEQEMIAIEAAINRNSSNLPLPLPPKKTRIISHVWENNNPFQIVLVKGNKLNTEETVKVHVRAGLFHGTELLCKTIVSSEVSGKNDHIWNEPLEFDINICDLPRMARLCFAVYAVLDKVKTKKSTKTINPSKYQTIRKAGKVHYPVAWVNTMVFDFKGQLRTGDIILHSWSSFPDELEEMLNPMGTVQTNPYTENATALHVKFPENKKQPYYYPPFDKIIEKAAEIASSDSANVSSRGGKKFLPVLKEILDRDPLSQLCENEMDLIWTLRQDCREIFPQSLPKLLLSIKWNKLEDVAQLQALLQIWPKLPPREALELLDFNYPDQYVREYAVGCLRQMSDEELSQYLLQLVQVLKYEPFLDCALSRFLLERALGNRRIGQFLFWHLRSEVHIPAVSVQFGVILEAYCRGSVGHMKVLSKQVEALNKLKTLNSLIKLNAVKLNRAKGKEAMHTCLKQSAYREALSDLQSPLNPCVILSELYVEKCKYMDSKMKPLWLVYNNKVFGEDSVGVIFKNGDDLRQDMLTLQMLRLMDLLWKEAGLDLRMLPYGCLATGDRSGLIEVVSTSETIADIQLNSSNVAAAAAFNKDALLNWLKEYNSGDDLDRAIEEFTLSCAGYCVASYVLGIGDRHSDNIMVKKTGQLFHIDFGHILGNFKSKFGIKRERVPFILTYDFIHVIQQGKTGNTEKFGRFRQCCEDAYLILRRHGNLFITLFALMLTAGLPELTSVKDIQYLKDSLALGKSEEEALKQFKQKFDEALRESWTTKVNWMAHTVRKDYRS
Sequence of PI3Kb (P27986 whole entry partner): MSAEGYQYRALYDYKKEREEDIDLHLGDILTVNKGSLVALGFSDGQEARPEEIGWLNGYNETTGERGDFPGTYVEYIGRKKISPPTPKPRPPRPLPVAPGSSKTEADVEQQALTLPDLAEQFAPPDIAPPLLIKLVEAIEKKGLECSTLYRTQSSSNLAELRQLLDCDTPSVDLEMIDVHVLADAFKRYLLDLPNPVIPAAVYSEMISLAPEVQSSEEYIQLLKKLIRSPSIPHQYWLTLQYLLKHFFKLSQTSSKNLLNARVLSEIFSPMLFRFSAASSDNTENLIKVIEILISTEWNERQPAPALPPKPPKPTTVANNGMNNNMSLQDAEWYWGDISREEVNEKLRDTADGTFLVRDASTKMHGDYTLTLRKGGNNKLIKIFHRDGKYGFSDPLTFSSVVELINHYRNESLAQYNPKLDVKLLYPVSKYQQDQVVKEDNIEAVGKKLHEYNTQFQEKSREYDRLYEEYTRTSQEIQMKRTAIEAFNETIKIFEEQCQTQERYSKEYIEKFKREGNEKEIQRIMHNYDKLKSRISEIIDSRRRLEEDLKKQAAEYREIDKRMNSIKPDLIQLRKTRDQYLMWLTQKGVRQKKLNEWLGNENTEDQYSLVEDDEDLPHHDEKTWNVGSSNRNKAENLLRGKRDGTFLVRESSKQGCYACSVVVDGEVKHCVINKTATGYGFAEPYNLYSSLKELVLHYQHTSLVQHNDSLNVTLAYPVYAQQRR
Sequence of MNK2 (Q9HBH9 whole entry): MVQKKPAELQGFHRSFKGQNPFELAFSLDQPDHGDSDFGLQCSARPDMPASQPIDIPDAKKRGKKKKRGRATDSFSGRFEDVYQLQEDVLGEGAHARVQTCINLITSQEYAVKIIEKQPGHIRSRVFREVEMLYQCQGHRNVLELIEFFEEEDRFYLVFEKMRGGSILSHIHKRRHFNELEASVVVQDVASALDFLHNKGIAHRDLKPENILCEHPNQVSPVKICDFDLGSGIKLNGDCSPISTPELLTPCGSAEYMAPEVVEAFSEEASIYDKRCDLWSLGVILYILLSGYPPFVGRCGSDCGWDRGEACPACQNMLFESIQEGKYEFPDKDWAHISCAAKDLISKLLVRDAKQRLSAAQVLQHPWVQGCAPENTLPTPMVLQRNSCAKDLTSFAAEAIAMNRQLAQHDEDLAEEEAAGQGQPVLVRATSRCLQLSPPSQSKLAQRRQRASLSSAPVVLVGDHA
Sequence of ABL2 (P42684 whole entry): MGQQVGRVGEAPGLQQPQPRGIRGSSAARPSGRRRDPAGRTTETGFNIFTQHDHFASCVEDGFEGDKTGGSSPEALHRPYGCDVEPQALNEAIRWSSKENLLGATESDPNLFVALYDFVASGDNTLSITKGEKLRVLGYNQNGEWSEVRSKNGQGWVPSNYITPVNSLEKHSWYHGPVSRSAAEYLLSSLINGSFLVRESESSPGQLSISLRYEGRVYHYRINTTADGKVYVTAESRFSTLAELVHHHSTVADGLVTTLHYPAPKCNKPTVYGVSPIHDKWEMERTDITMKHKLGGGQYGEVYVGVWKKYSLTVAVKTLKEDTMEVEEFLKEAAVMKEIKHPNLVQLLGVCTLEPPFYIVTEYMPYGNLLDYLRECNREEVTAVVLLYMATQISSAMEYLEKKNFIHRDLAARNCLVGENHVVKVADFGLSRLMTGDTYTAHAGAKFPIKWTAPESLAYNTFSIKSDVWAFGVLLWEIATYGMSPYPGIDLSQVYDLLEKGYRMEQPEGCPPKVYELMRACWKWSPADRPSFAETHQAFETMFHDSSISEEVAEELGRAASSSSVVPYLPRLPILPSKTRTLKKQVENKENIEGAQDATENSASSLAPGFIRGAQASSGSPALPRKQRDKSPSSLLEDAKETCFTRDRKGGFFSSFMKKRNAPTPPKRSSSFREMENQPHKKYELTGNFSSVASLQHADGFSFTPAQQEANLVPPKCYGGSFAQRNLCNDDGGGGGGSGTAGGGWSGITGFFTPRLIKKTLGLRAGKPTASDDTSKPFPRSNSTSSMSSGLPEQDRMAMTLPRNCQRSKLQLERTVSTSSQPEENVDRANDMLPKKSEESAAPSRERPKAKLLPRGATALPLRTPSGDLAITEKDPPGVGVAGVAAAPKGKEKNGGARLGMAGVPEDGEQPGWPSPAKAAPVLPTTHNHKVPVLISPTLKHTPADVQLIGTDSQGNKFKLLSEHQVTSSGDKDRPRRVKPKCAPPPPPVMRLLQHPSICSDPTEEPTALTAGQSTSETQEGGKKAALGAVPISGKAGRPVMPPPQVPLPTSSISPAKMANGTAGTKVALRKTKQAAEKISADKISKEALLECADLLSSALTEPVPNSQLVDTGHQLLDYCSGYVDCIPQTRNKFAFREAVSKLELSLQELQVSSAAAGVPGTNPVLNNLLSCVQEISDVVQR

Row | Molecule | EC50 [1] | EC50 (HCoV-OC43 (VR-1558)) | SI (CC50/EC50) (HCoV-OC43 (VR-1558)) | IC50 (AAK1) | IC50 (ABL2) | IC50 (BIKE) | IC50 (CSNK2A1) | IC50 (CSNK2A2) | IC50 (GAK) | IC50 (MNK2) | IC50 (PI3Kb) | CC50 (Vero 76 cells)
1 | Human interferon alpha-2b [rIFNa-2b] | 0.63 IU/mL |  |  |  |  |  |  |  |  |  |  | 
2 | COc1cc(-c2cc(=O)c3c(O)cc(O)c(CC=C(C)C)c3o2)ccc1O [FBL-03G] |  | 420 nM | 6.9 | 4 nM | 274 nM | 258 nM | 20 nM | 4 nM | 8 nM | 549 nM | 136 nM | 2900 nM

From patent US20210346339A1, “THERAPEUTIC FLAVONOID BASED ANTIVIRAL AGENTS” (priority 2016, published 2021)
